Source: patent US20240182445A1 (ONO PHARMACEUTICAL CO., LTD., priority 2019, published 2024)

Biological target: T1, human TREK-1 (Homo sapiens, UniProt O95069)
T1 construct: expressed in transfected cells
T1 sequence (O95069 1-426): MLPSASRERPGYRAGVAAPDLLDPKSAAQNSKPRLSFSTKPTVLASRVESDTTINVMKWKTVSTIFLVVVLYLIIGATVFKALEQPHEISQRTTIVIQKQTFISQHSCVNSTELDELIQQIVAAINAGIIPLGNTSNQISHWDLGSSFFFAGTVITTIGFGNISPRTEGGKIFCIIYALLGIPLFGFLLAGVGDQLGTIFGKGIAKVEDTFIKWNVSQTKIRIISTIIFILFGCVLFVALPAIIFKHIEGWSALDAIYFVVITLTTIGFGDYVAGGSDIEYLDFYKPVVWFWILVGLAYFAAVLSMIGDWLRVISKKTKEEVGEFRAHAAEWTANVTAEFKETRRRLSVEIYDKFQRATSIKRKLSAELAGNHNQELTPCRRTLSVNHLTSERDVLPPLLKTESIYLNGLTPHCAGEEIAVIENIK
Assay: TREK-1 Thallium (Tl+) flux assay, Method 1
Assay type: cell-based
Settings: TREK-1 Thallium (Tl+) flux assay; values without footnote *12 are Method 1
Summary of the method: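 CHO-K1 cells stably expressing human TREK-1, loaded with Thallos dye, received compound or 0.3% DMSO vehicle for 10 min before thallium stimulus buffer. ΔRatio is fluorescence at 25 s after thallium addition over mean pre-addition fluorescence; % inhibition calculated from it.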

| IC50 | Compound |
| --- | --- |
| 260 nM | Cc1cc(C#Cc2ccccc2)cnc1NC(=O)c1c(Cl)cnn1C[C@@H]1CCOC1 [Compound 160, (S)-4-chloro-N-(3-methyl-5-(phenylethynyl)pyridin-2-yl)-1-((tetrahydrofuran-3-yl)methyl)-1H-pyrazole-5-carboxamide] |
| 260 nM | O=C(Nc1c(F)cc(C#Cc2ccccc2)cc1F)c1c(Cl)cnn1C[C@H]1CCOC1 [Compound 162, (R)-4-chloro-N-(2,6-difluoro-4-(phenylethynyl)phenyl)-1-((tetrahydrofuran-3-yl)methyl)-1H-pyrazole-5-carboxamide] |
| 260 nM | Cc1cc(C#Cc2ccccc2)cnc1NC(=O)c1c(Cl)cnn1C1CCN(S(C)(=O)=O)CC1 [Compound 163, 4-chloro-N-(3-methyl-5-(phenylethynyl)pyridin-2-yl)-1-(1-(methylsulfonyl)piperidin-4-yl)-1H-pyrazole-5-carboxamide] |
| 260 nM | CC(=O)N1CCC(n2ncc(Cl)c2C(=O)Nc2ncc(C#Cc3ccccc3F)cc2C)CC1 [Compound 164, 1-(1-acetylpiperidin-4-yl)-4-chloro-N-(5-((2-fluorophenyl)ethynyl)-3-methylpyridin-2-yl)-1H-pyrazole-5-carboxamide] |
| 260 nM | CC(=O)N1CCC(C)(Cn2ncc(Cl)c2C(=O)Nc2ncc(C#Cc3ccccc3)cc2C)CC1 [Compound 166, 1-((1-acetyl-4-methylpiperidin-4-yl)methyl)-4-chloro-N-(3-methyl-5-(phenylethynyl)pyridin-2-yl)-1H-pyrazole-5-carboxamide] |
| 270 nM | Cc1cc(C#Cc2ccccc2)cnc1NC(=O)c1c(Cl)cnn1CCCC#N [Compound 167, 4-chloro-1-(3-cyanopropyl)-N-(3-methyl-5-(phenylethynyl)pyridin-2-yl)-1H-pyrazole-5-carboxamide] |
| 270 nM | Cc1cc(C#Cc2ccccc2)cnc1NC(=O)c1c(Cl)cnn1C1CCN(C(=O)C(C)C)CC1 [Compound 169] |
| 270 nM | CC(C)(C)OC(=O)N1C[C@H]2C[C@H](n3ncc(Cl)c3C(=O)Nc3ncc(C#Cc4ccccc4)cc3F)C[C@H]2C1 [Compound 170, tert-butyl (3aR,5s,6aS)-5-(4-chloro-5-{[3-fluoro-5-(phenylethynyl)pyridin-2-yl]carbamoyl}-1H-pyrazol-1-yl)hexahydrocyclopenta[c]pyrrole-2(1H)-carboxylate] |
| 270 nM | Cc1cc(C#Cc2ccccc2)cnc1NC(=O)c1c(Cl)cnn1C1CCN(C(=O)CC(F)(F)F)CC1 [Compound 171, 4-chloro-N-(3-methyl-5-(phenylethynyl)pyridin-2-yl)-1-(1-(3,3,3-trifluoropropanoyl)piperidin-4-yl)-1H-pyrazole-5-carboxamide] |
| 270 nM | Cc1cc(C#Cc2cccc(F)c2)cnc1NC(=O)c1c(Cl)cnn1CC1CCN(C(=O)C2CC2)CC1 [Compound 174, 4-chloro-1-((1-(cyclopropanecarbonyl)piperidin-4-yl)methyl)-N-(5-((3-fluorophenyl)ethynyl)-3-methylpyridin-2-yl)-1H-pyrazole-5-carboxamide] |
| 270 nM | CC(=O)N1CCCC(Cn2ncc(Cl)c2C(=O)Nc2ncc(C#Cc3ccccc3)cc2C)C1 (stereo not drawn) [Compound 176, 1-((1-acetylpiperdin-3-yl)methyl)-4-chloro-N-(3-methyl-5-(phenylethynyl)pyridin-2-yl)-1H-pyrazole-5-carboxamide] |
| 280 nM | Cc1cc(C#Cc2ccc(F)cc2)cnc1NC(=O)c1c(Cl)cnn1C1CCN(C(=O)C(C)(C)C)CC1 [Compound 181, 4-chloro-N-(5-((4-fluorophenyl)ethynyl)-3-methylpyridin-2-yl)-1-(1-pivaloylpiperidin-4-yl)-1H-pyrazole-5-carboxamide] |
| 280 nM | CC(C)C(=O)N1CC2(CC(n3ncc(Cl)c3C(=O)Nc3ncc(C#Cc4ccccc4)cc3F)C2)C1 [Compound 182, 4-chloro-N-(3-fluoro-5-(phenylethynyl)pyridin-2-yl)-1-(2-isobutyryl-2-azaspiro[3.3]heptan-6-yl)-1H-pyrazole-5-carboxamide] |
| 290 nM | Cc1cc(C#Cc2ccccc2)cc(F)c1NC(=O)c1c(Cl)cnn1CCCC#N [Compound 185, 4-chloro-1-(3-cyanopropyl)-N-(2-fluoro-6-methyl-4-(phenylethynyl)phenyl)-1H-pyrazole-5-carboxamide] |
| 290 nM | Cc1cc(C#Cc2ccccc2)cnc1NC(=O)c1c(Cl)cnn1CC1CCN(C(=O)OC(C)(C)C)CC1 [Compound 186, tert-butyl 4-((4-chloro-5-((3-methyl-5-(phenylethynyl)pyridin-2-yl)carbamoyl)-1H-pyrazol-1-yl)methyl)piperidine-1-carboxylate] |

More lines, now with the values behind:

| Compound | IC50 |
| --- | --- |
| O=C(Nc1c(F)cc(C#Cc2ccccc2)cc1F)c1c(Cl)cnn1C[C@@H]1CCOC1 [Compound 161] | 260 nM |
| Cc1cc(C#Cc2ccc(F)cc2)cnc1NC(=O)c1c(Cl)cnn1[C@H]1CC[C@@H](NC(=O)C2CC2)CC1 [Compound 165, 4-chloro-1-(cis-4-(cyclopropanecarboxamido)cyclohexyl)-N-(5-((4-fluorophenyl)ethynyl)-3-methylpyridin-2-yl)-1H-pyrazole-5-carboxamide] | 260 nM |
| N#CC1(Cn2ncc(Cl)c2C(=O)Nc2c(F)cc(C#Cc3ccccc3)cc2F)CC1 [Compound 168, 4-chloro-1-((1-cyanocyclopropyl)methyl)-N-(2,6-difluoro-4-(phenylethynyl)phenyl)-1H-pyrazole-5-carboxamide] | 270 nM |
| Cc1cc(C#Cc2ccccc2)cnc1NC(=O)c1c(Cl)cnn1CCC1CCN(C(=O)C2CC2)CC1 [Compound 172, 4-chloro-1-(2-(1-(cyclopropanecarbonyl)piperidin-4-yl)ethyl)-N-(3-methyl-5-(phenylethynyl)pyridin-2-yl)-1H-pyrazole-5-carboxamide] | 270 nM |
| CC(=O)N1CC2(CC(n3ncc(Cl)c3C(=O)Nc3ncc(C#Cc4ccccc4)cc3C)C2)C1 [Compound 173, 1-(2-acetyl-2-azaspiro[3.3]heptan-6-yl)-4-chloro-N-(3-methyl-5-(phenylethynyl)pyridin-2-yl)-1H-pyrazole-5-carboxamide] | 270 nM |
| CC(C)C(=O)N1CCC(n2ncc(Cl)c2C(=O)Nc2ncc(C#Cc3cccs3)cc2F)CC1 [Compound 175, 4-chloro-N-(3-fluoro-5-(thiophen-2-ylethynyl)pyridin-2-yl)-1-(1-isobutyrylpiperidin-4-yl)-1H-pyrazole-5-carboxamide] | 270 nM |
| CC(=O)N1CCCC(Cn2ncc(Cl)c2C(=O)Nc2ncc(C#Cc3ccccc3)cc2F)C1 (stereo not drawn) [Compound 177, 1-((1-acetylpiperidin-3-yl)methyl)-4-chloro-N-(3-fluoro-5-(phenylethynyl)pyridin-2-yl)-1H-pyrazole-5-carboxamide] | 270 nM |
| CC(=O)N1CC[C@@H](Cn2ncc(Cl)c2C(=O)Nc2ncc(C#Cc3ccccc3)cc2F)[C@H](F)C1 [Compound 178, 1-(((3S,4S)-1-acetyl-3-fluoropiperidin-4-yl)methyl)-4-chloro-N-(3-fluoro-5-(phenylethynyl)pyridin-2-yl)-1H-pyrazole-5-carboxamide] | 270 nM |
| CC(=O)N1CCC(C#N)(Cn2ncc(Cl)c2C(=O)Nc2ncc(C#Cc3ccc(F)cc3)cc2C)CC1 [Compound 179, 1-((1-acetyl-4-cyanopiperidin-4-yl)methyl)-4-chloro-N-(5-((4-fluorophenyl)ethynyl)-3-methylpyridin-2-yl)-1H-pyrazole-5-carboxamide] | 270 nM |
| Cc1cc(C#Cc2ccccc2)cc(F)c1NC(=O)c1c(Cl)cnn1C1CCOCC1 [Compound 180, 4-chloro-N-(2-fluoro-6-methyl-4-(phenylethynyl)phenyl)-1-(tetrahydro-2H-pyran-4-yl)-1H-pyrazole-5-carboxamide] | 280 nM |
| Cc1cc(C#Cc2ccccc2)cnc1NC(=O)c1c(Cl)cnn1[C@H]1C[C@H](NC(=O)C(C)C)C1 [Compound 183, 4-chloro-1-(trans-3-isobutyramidocyclobutyl)-N-(3-methyl-5-(phenylethynyl)pyridin-2-yl)-1H-pyrazole-5-carboxamide] | 280 nM |
| Cc1cc(C#Cc2ccccc2)cnc1NC(=O)c1c(Cl)cnn1CC1(C)CCN(C(=O)C2CC2C)CC1 (stereo not drawn) [Compound 184, 4-chloro-1-((4-methyl-1-(2-methylcyclopropane-1-carbonyl)piperidin-4-yl)methyl)-N-(3-methyl-5-(phenylethynyl)pyridin-2-yl)-1H-pyrazole-5-carboxamide] | 280 nM |
| Cc1cc(C#Cc2cccs2)cnc1NC(=O)c1c(Cl)cnn1[C@H]1C[C@@H]2CN(C(=O)C(C)C)C[C@@H]2C1 [Compound 187, 4-chloro-1-[(3aR,5s,6aS)-2-(2-methylpropanoyl)octahydrocyclopenta [c]pyrrol-5-yl]-N-{3-methyl-5-[(thiophen-2-yl)ethynyl]pyridin-2-yl}-1H-pyrazole-5-carboxamide] | 290 nM |
| Cc1cc(C#Cc2ccccc2)cnc1NC(=O)c1c(Cl)cnn1CCC1CCN(C(=O)C(C)C)CC1 [Compound 188, 4-chloro-1-(2-(1-isobutyrylpiperidin-4-yl)ethyl)-N-(3-methyl-5-(phenylethynyl)pyridin-2-yl)-1H-pyrazole-5-carboxamide] | 290 nM |
| O=C(Nc1ncc(C#Cc2ccccc2)cc1F)c1c(Cl)cnn1-c1ccc2c(c1)OCCO2 [Compound 189, 4-chloro-1-(2,3-dihydrobenzo[b][1,4]dioxin-6-yl)-N-(3-fluoro-5-(phenylethynyl)pyridin-2-yl)-1H-pyrazole-5-carboxamide] | 290 nM |
